From US8338465B2, “Cyclic carboxylic acid rhodanine derivatives for the treatment and prevention of tuberculosis” (priority 2006, dated 2012) come the findings set out here.

Molecules are shown by their SMILES. Read-outs that look alike come from different tables or passages of the source. Some results are limits rather than exact numbers.

This assay concerns the target T1, dihydrolipoamide acyltransferase (DlaT) (Mycobacterium tuberculosis, UniProt P9WIS7).
T1 sequence (P9WIS7 1-553): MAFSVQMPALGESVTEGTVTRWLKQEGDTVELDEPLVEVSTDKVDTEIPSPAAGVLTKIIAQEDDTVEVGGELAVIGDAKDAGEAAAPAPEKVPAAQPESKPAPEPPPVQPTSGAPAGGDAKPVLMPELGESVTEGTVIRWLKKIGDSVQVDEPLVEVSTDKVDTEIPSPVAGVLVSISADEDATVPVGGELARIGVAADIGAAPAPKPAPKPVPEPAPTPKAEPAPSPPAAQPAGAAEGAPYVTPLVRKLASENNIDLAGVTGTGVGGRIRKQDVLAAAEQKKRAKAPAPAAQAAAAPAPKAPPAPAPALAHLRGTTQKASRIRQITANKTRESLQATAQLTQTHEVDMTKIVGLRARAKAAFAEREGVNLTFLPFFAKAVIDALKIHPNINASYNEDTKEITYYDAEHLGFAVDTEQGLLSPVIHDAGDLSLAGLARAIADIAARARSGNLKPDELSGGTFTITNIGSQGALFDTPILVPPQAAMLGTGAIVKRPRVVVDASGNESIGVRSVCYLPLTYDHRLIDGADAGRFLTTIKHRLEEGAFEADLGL
Kind of assay: DlaT inhibition (Dlat IC50); DTNB peroxidase assay with Lpd, DlaT and AhpD. It counts as biochemical.

Setting [1] is: Table 1, Compounds A1 to A294, read-out: Dlat IC50 category.

One may read the IC50 as the concentration that gives 50% inhibition. Take `Cc1cc(F)ccc1-c1ccc(C=C2SC(=S)N(c3cc(C(=O)O)ccc3F)C2=O)o1` [Compound A149]: the IC50 under setting [1] was less than 10 µM.
With `CSc1ccc(-c2ccc(C=C3SC(=S)N(C4CCCC(C(=O)OCCCCO)C4)C3=O)o2)cc1` (stereo not drawn) [Compound U4, 3-{5-[1-[5-(4-Methylsulfanyl-phenyl)-furan-2-yl]-methylidene]-4-oxo-2-thioxo-thiazolidin-3-yl}-cyclohexanecarboxylic acid 4-hydroxy-butyl ester], the IC50 (Dlat IC50 category, Table 21, Prodrugs (Examples U1 to U10)) fell in the range of 41 to 80 µM.
Compound `Cc1ccccc1-c1ccc(C=C2SC(=S)N(Nc3ccccc3C(=O)O)C2=O)s1` [Compound D34, 2-{4-oxo-2-thioxo-5-[1-(5-o-tolyl-thiophen-2-yl)-methylidene]-thiazolidin-3-ylamino}-benzoic acid] displayed an IC50 (Dlat IC50 category) of less than 10 µM.
With `O=C(O)CN1C(=O)C(=Cc2ccc(-c3ccc(C(=O)c4ccccc4)cc3)o2)SC1=S` [Compound B69], the IC50 (Dlat IC50 category) was in the range of 11 to 40 µM.
For the compound `COc1ccc(-c2ccc(C=C3SC(=S)N(c4cccc(C(=O)O)c4)C3=O)o2)cc1Cl` [Compound A146], the IC50 under setting [1] is less than 10 µM.
On the same count and under the same terms, then `CCCc1ccc(-c2ccc(C=C3SC(=S)N(c4cc(C(=O)O)cc(C(F)(F)F)c4)C3=O)o2)cc1` [Compound A272], with 11 to 40 µM.
In the case of `NS(=O)(=O)c1ccc(N2C(=O)C(=Cc3ccc(-c4cncnc4)o3)SC2=S)cc1` [Compound Q3], the IC50 (Dlat IC50 category, Table 17, Compounds Q1 to Q9) fell in the range of 11 to 40 µM.
As to `CC(C(=O)O)N1C(=O)C(=Cc2ccc(-c3cccc(Cl)c3)o2)SC1=S` (stereo not drawn) [Compound B95], the IC50 (Dlat IC50 category) lay in the range of 11 to 40 µM.
Regarding `CCc1ccccc1-c1ccc(C=C2SC(=S)N(c3cccc(C(=O)O)c3)C2=O)o1` [Compound A249], under setting [1], the IC50 is less than 10 µM.
For the setting “Dlat IC50 category”, `O=C(O)c1cccc(N2C(=O)C(=Cc3ccc(-c4cc5ccccc5s4)o3)SC2=S)c1` [Compound I1] showed an IC50 of less than 10 µM.
Take `Cc1cc(C)c(-c2ccc(C=C3SC(=S)N(c4cc(C(=O)O)ccc4F)C3=O)o2)c(C)c1` [Compound A181]: the IC50 under setting [1] is less than 10 µM.
Consider `O=C(O)c1ccccc1NN1C(=O)C(=Cc2ccc(-c3ccc(OCc4ccccc4)cc3)o2)SC1=S` [Compound D48, 2-{5-[1-[5-(4-benzyloxy-phenyl)-furan-2-yl]-methylidene]-4-oxo-2-thioxo-thiazolidin-3-ylamino}-benzoic acid], for which the IC50 (Dlat IC50 category) lay within 11 to 40 µM.
With `Cc1ccc(C(=O)O)cc1N1C(=O)C(=Cc2ccc(-c3c(Cl)cccc3Cl)o2)SC1=S` [Compound A114], the IC50 under setting [1] was less than 10 µM.
As for `COc1ccc(-c2ccc(C=C3SC(=S)N(c4cc(C(=O)O)ccc4F)C3=O)o2)c(OC)c1` [Compound A168], under setting [1], the IC50 was less than 10 µM.
On to `O=C(O)C(Cc1ccc(O)cc1)N1C(=O)C(=Cc2ccc(-c3cc(C(F)(F)F)ccc3Cl)o2)SC1=S` (stereo not drawn) [Compound B63], for which the IC50 (Dlat IC50 category) was less than 10 µM.
Turning to `COc1cc(F)ccc1-c1ccc(C=C2SC(=S)N(C3CCCC(C(=O)O)C3)C2=O)o1` (stereo not drawn) [Compound C25, 3-{5-[1-[5-(4-fluoro-2-methoxy-phenyl)-furan-2-yl]-methylidene]-4-oxo-2-thioxo-thiazolidin-3-yl}-cyclohexanecarboxylic acid], the IC50 (Dlat IC50 category) was less than 10 µM.
Same read-out and setting: then `Cc1cc(F)ccc1-c1ccc(C=C2SC(=S)N(C3CCCC(C(=O)O)C3)C2=O)o1` (stereo not drawn) [Compound C11, 3-{5-[1-[5-(2-methyl-4-fluoro-phenyl)-furan-2-yl]-methylidene]-4-oxo-2-thioxo-thiazolidin-3-yl}-cyclohexanecarboxylic acid], with less than 10 µM.
With `O=C(O)c1ccc(F)c(N2C(=O)C(=Cc3ccc(-c4ccccc4F)o3)SC2=S)c1` [Compound A208], under setting [1], the IC50 was in the range of 11 to 40 µM.
On the same count and under the same terms, then `O=C(O)c1cccc(N2C(=O)C(=Cc3ccc(-c4ccc(OCc5ccccc5)cc4)o3)SC2=S)c1` [Compound A219], with 11 to 40 µM.
In turn, `COc1ccc(-c2ccc(C=C3SC(=S)N(CCCCCC(=O)O)C3=O)o2)cc1Cl` [Compound B21] showed an IC50 (Dlat IC50 category) of 11 to 40 µM.
`O=C(O)C(c1ccccc1)N1C(=O)C(=Cc2cccc(-c3ccccc3Cl)n2)SC1=S` (stereo not drawn) [Compound B8] had an IC50 (Dlat IC50 category) of 11 to 40 µM.
